According to patent US20250154120A1, “COUMARIN COMPOUNDS AND USES THEREOF” (priority 2022, published 2025):
Like-named read-outs stand apart in the source and are kept apart here.

Assays:
HCT116 cells = test: HCT116 cell proliferation inhibition in vitro (3D CellTiter-Glo, 5 days); assay type: cell-based; details: Homo sapiens, HCT-116, 120 h, read-out: HCT116/IC50
Experimental: McCoy's 5A medium, penicillin/streptomycin antibiotics purchased from Vicente, fetal bovine serum purchased from Biosera. 3D CellTiter-Glo (cell viability chemiluminescence detection reagent) reagent purchased from Promega. HCT116 cell line purchased from Nanjing Kebai Biotechnology Co., Ltd. Envision multi-label analyzer (PerkinElmer).
HCT116 cells were seeded in ultra-low attachment 96-well U-shaped plates, with 80 μL of cell suspension per well, containing 1000 HCT116 cells. The cell plate was cultured in a carbon dioxide incubator overnight.
The compound to be tested was serially diluted 5-fold to the 9th concentration using a pipette, that is, from 2 mM to 5.12 nM, in duplicates. 78 μL of culture medium was added to a middle plate, and then 2 μL of the serially diluted compound per well was transferred to the middle plate according to the corresponding position. After mixing well, 20 μL of the mixture was transferred to each well of the cell plate. The concentration range of the compound transferred to the cell plate was 10 μM to 0.0256 nM. The cell plate was placed in a carbon dioxide incubator and cultured for 5 days. Another cell plate was prepared, and its signal value was read on the day of drug addition as the […] for data analysis.
100 μL of cell viability chemiluminescent detection reagent was added to the cell plate and the mixture was incubated at room temperature for 10 minutes to stabilize the luminescent signal. The plate was read using a multi-label analyzer.
The raw data was converted into inhibition rate using the equation (Sample−Min)/(Max−Min)*100%, and the IC50 value may be obtained by four-parameter curve fitting (obtained in the “log(inhibitor) vs. response—Variable slope” mode in GraphPad Prism). The assay results of the inhibitory activity of the compounds of the present disclosure on HCT116 cell proliferation are shown in Table 1.

[1] = Pharmacokinetic study in CD-1 male mice after oral and intravenous administration; assay type: in vivo; details: mouse, plasma; for AUC(0-t): read-out: Area under the plasma concentration-time curve AUC0-last
Experimental: Pharmacokinetic study of the test compound in CD-1 male mice after oral and intravenous injection
The test compound was mixed with 10% dimethyl sulfoxide/30% PEG-400/60% aqueous solution, vortexed and sonicated to prepare a 0.20 mg/mL clear solution. The clear solution was filtered through a microporous filter for later use. Male CD-1 mice aged 7 to 10 weeks were selected and intravenously injected with a candidate compound solution and a reference compound VS-6766 solution. The reference compound and the test compound were respectively mixed with 20% sulfobutyl-β-cyclodextrin/80% aqueous solution, vortexed and sonicated to prepare a 0.20 mg/mL nearly transparent solution containing fine particles, and the candidate compound solution was orally administered. Whole blood was collected for a certain period of time, and the plasma was prepared. The drug concentration was analyzed by LC-MS/MS method, and the pharmacokinetic parameters were calculated using Phoenix WinNonlin software (Pharsight, USA).

NCI-H358 = test: Subcutaneous xenograft tumor model of human non-small cell lung cancer NCI-H358 in female BALB/c Nude mice; assay type: in vivo, mouse
Experimental: In vivo pharmacodynamic study of the test drug on the subcutaneous xenograft tumor model of human non-small cell lung cancer NCI-H358 in female BALB/c Nude mice
1. Cell culture: Human lung cancer cells NCI-H358 (ECACC-95111733) were revived and cultured in vitro in monolayers in RPMI 1640 medium with 10% fetal bovine serum and 1% double antibody. The cells were cultured in a 37° C. 5% CO2 cell incubator, and passaged twice a week. When the saturation of NCI-H358 cells reached 80%-90%, the cells were harvested, counted, and inoculated.
2. Animals: BALB/c Nude mice, female, 6-8 weeks old, weighing 18-22 g
3. Tumor inoculation: 5×10^6 NCI-H358 cells were inoculated on the right side of the neck of each mouse, with an inoculation volume of 0.1 mL. The cell suspension was a mixture of PBS and Matrigel (3:1). When the average tumor volume reached 150-200 mm^3, the mice were randomly divided into groups for drug administration. The drug administration scheme and the number of assay animals in each group are shown in Table 3 below: Assay animal grouping and administration regimen
The assay index is to examine whether the tumor growth is inhibited, delayed or cured. The tumor diameter was measured with a vernier caliper twice a week. The calculation formula of tumor volume is: V=0.5 a×b^2, where a and b represent the long diameter and short diameter of the tumor respectively.
The anti-tumor efficacy of the compound was evaluated by TGI (%) or relative tumor proliferation rate T/C (%). TGI (%) reflects the tumor growth inhibition rate. Calculation of TGI (%): TGI (%)=[1−(average tumor volume of a certain treatment group at a certain measurement−average tumor volume of the treatment group at grouping)/(average tumor volume of the vehicle control group at the same measurement−average tumor volume of the vehicle control group at grouping)]×100%. Relative tumor proliferation rate T/C (%): The calculation formula is as follows: T/C %=TRTV/CRTV×100% (TRTV: RTV of the treatment group; CRTV: RTV of the negative control group). The relative tumor volume (RTV) was calculated based on the results of tumor measurement. The calculation formula is RTV=VtV0, where V0 is the average tumor volume measured at grouping (i.e. PG-D0), Vt is the average tumor volume at a certain measurement, and TRTV and CRTV are taken from the same day.
TGI (%) reflects the tumor growth inhibition rate. TGI (%)=[(1−(average tumor volume at the end of a treatment group's administration−average tumor volume at the beginning of the treatment group's administration))/(average tumor volume at the end of the vehicle control group's treatment−average tumor volume at the beginning of the vehicle control group's treatment)]×100%.

[2] = HCT116 cells, 5 days culture, cell viability chemiluminescence
[3] = 0.3 mg/kg p.o. QD, day 28 (discontinued D10-D17 and D23-D25)
[4] = 1.5 mg/kg p.o. QD, day 28 (discontinued D3-D13, changed to 0.05 after D14)

Structure (SMILES) | IC50 (HCT116 cells; [2]) [µM] | IC50 (HCT116 cells) [µM] | Vd ([1]; intravenous injection, 1.04 mg/kg, read-out: Apparent volume of distribution Vdss) [L/kg] | AUC(0-t) ([1]; intravenous injection, 1.04 mg/kg) [µM·h] | clearance ([1]; intravenous injection, 1.04 mg/kg, read-out: Clearance CL) [L/h/kg] | half-life ([1]; intravenous injection, 1.04 mg/kg, read-out: Half-life T1/2 (converted)) [h] | AUC(0-t) ([1]; oral administration, 2.16 mg/kg) [µM·h] | Cmax ([1]; oral administration, 2.16 mg/kg, read-out: Peak concentration Cmax) [µM] | Tmax ([1]; oral administration, 2.16 mg/kg, read-out: Time to peak Tmax) [h] | bioavailability ([1]; oral administration, 2.16 mg/kg, read-out: Bioavailability F) [%] | Mean tumor volume (NCI-H358; [3]) [mm^3] | T/C (NCI-H358; [3]) [%] | TGI (NCI-H358; [3]) [%] | Mean tumor volume (NCI-H358; [4]) [mm^3] | T/C (NCI-H358; [4]) [%] | TGI (NCI-H358; [4]) [%]
CNS(=O)(=O)Nc1cccc(Cc2c(C)c3c(F)cc(Oc4ncccn4)cc3oc2=O)c1F [Compound 1] | 0.017 | – | – | – | – | – | – | – | – | – | – | – | – | – | – | –
CNS(=O)(=O)Nc1cccc(Cc2c(C)c3c(F)cc(OC(=O)N(C)C)cc3oc2=O)c1F [Compound 2] | – | 0.0072 | – | – | – | – | – | – | – | – | – | – | – | – | – | –
CNS(=O)(=O)Nc1nccc(Cc2c(C)c3c(F)cc(Oc4ncccn4)cc3oc2=O)c1F [Compound 3] | 0.0287 | – | 0.35 | 46.8 | 0.0414 | 5.73 | 85.8 | 10.9 | 0.63 | 89.8 | 71 | 7.90 | 111.4 | 67 | 7.45 | 111.9
